# Patent US20160108008A1, “Substituted N-(Tetrazol-5-yl)- and N-(Triazol-5-yl)arylcarboxamide Compounds and Their Use as Herbicides” (BASF SE, priority 2013, published 2016)
# Marks after values point to notes of the source that are not given here.
# Tests used:
# Assay type in all cases: in vivo
# [1] = test system: Abutilon theophrasti; experiment: greenhouse pre-emergence treatment, ABUTH; conditions: pre-emergence (value labeled *), scale 0-100
# From the text: (§1) The culture containers used were plastic flowerpots containing loamy sand with approximately 3.0% of humus as the substrate. The seeds of the test plants were sown separately for each species.
# (§2) For the pre-emergence treatment, the active ingredients, which had been suspended or emulsified in water, were applied directly after sowing by means of finely distributing nozzles. The containers were irrigated gently to promote germination and growth and subsequently covered with transparent plastic hoods until the plants had rooted. This cover caused uniform germination of the test plants, unless this has been impaired by the active ingredients.
# (§3) Depending on the species, the plants were kept at 10-25° C. or 20-35° C. The test period extended over 2 to 4 weeks. During this time, the plants were tended, and their response to the individual treatments was evaluated.
# (§4) Evaluation was carried out using a scale from 0 to 100. 100 means no emergence of the plants, or complete destruction of at least the aerial moieties, and 0 means no damage, or normal course of growth. A good herbicidal activity is given at values of at least 70 and a very good herbicidal activity is given at values of at least 85.
# (§5) The plants used in the greenhouse experiments belonged to the following species:
# (§6) Following representative compounds of formula I according to Table 9 were used in post-emergence treatments in greenhouse experiments (values labeled with * result from pre-emergence experiments): […]
# [2] = test system: Amaranthus retroflexus; experiment: greenhouse post-emergence treatment, AMARE; conditions: scale 0-100
# From the text: as §1
# (§7) For the post-emergence treatment, the test plants were first grown to a height of 3 to 15 cm, depending on the plant habit, and only then treated with the active ingredients which had been suspended or emulsified in water. For this purpose, the test plants were either sown directly and grown in the same containers, or they were first grown separately as seedlings and transplanted into the test containers a few days prior to treatment.
# as §3, §4, §5, §6
# [3] = test system: Echinochloa crus-galli; experiment: greenhouse post-emergence treatment, ECHCG; conditions: scale 0-100
# From the text: as §1, §7, §3, §4, §5, §6
# [4] = test system: Chenopodium album; experiment: greenhouse post-emergence treatment, CHEAL; conditions: scale 0-100
# From the text: as §1, §7, §3, §4, §5, §6
# [5] = test system: Amaranthus retroflexus; experiment: greenhouse pre-emergence treatment, AMARE; conditions: pre-emergence (value labeled *), scale 0-100
# From the text: as §1, §2, §3, §4, §5, §6
Compound,[%] damage to weed III (AMARE) ([2]; 250 g/ha),[%] damage to weed VII (ECHCG) ([3]; 250 g/ha),[%] damage to weed VI (CHEAL) ([4]; 250 g/ha),[%] damage to weed III (AMARE) ([5]; 250 g/ha),further results
COCCOc1c(Cl)cc(F)c(C(=O)Nc2nnnn2C)c1Cl [compound 70],98%,95%,100%,–,[%] damage to weed I (ABUTH) ([1]; 250 g/ha): 100* %
COc1c(Cl)cc(F)c(C(=O)Nc2nnnn2C)c1Cl [compound 9],–,–,–,–,[%] damage to weed I (ABUTH) ([1]; 196 g/ha): 100* %; [%] damage to weed III (AMARE) ([2]; 196 g/ha): 100%; [%] damage to weed VI (CHEAL) ([4]; 196 g/ha): 100%
CCSc1c(Cl)cc(F)c(C(=O)Nc2nnnn2CC)c1Cl [compound 64],–,–,–,–,[%] damage to weed III (AMARE) ([5]; 500 g/ha): 100* %; [%] damage to weed III (AMARE) ([2]; 500 g/ha): 100; %; [%] damage to weed VII (ECHCG) ([3]; 500 g/ha): 100%; [%] damage to weed VI (CHEAL) ([4]; 500 g/ha): 100%
"CCn1nnnc1NC(=O)c1c(F)cc(Cl)c(OCCC(F)(F)F)c1Cl [compound 92, 2,4-Dichloro-N-(1-ethyltetrazol-5-yl)-6-fluoro-3-(3,3,3-trifluoropropoxy)benzamide]",100; %,100%,100%,100* %,–
Cn1ncnc1NC(=O)c1c(F)cc(Cl)c([S+](C)[O-])c1Cl (stereo not shown) [cpd. 5],100%,98%,100%,–,–
CCSc1c(Cl)cc(F)c(C(=O)Nc2nnnn2CCOC)c1Cl [compound 79],100; %,100%,100%,100* %,–
CCn1nnnc1NC(=O)c1c(F)cc(Cl)c([S+](C)[O-])c1Cl (stereo not shown) [compound 32],100; %,100%,100%,100* %,–
CCCS(=O)(=O)c1c(Cl)cc(F)c(C(=O)Nc2ncnn2C)c1Cl [compound 26],–,–,–,–,[%] damage to weed III (AMARE) ([5]; 500 g/ha): 98* %; [%] damage to weed III (AMARE) ([2]; 500 g/ha): 100; %; [%] damage to weed VII (ECHCG) ([3]; 500 g/ha): 98%; [%] damage to weed VI (CHEAL) ([4]; 500 g/ha): 100%
CCCSc1c(Cl)cc(F)c(C(=O)Nc2ncnn2C)c1Cl [compound 22],100: %,100%,100%,80* %,–
CC[S+]([O-])c1c(Cl)cc(F)c(C(=O)Nc2nnnn2CCOC)c1Cl (stereo not shown) [compound 77],–,–,–,–,[%] damage to weed III (AMARE) ([5]; 125 g/ha): 100* %; [%] damage to weed III (AMARE) ([2]; 125 g/ha): 100; %; [%] damage to weed VII (ECHCG) ([3]; 125 g/ha): 100%; [%] damage to weed VI (CHEAL) ([4]; 125 g/ha): 100%
CCSc1c(F)cc(Cl)c(C(=O)Nc2nnnn2C)c1F [compound 97],100; %,100%,100%,100* %,–
COCCn1nnnc1NC(=O)c1c(Cl)cc(Cl)c(SC)c1Cl [compound 75],100; %,100%,100%,100* %,–
CCS(=O)(=O)c1c(Cl)cc(Cl)c(C(=O)Nc2nnnn2C)c1Cl [compound 73],100; %,100%,100%,98* %,–
CCSc1ccc(Cl)c(C(=O)Nc2nnnn2C)c1Cl [compound 88],–,100%,100%,–,–
